According to patent publication US20240254138A1, “TRICYCLIC PYRIMIDINES AS CYCLIN-DEPENDENT KINASE 7 (CDK7) INHIBITORS” (JANSSEN PHARMACEUTICA NV, priority 2021, published 2024):
Read-outs that look alike come from different tables or passages of the source.

What was measured:
[1] = molecular target: CDK7/cyclinH/MAT1 trimeric complex (Homo sapiens, UniProt P50613); experiment: In vitro CDK7 assay, potency of irreversible covalent inhibitors (kinact/KI), coupled PK/LDH ADP readout at 340 nm; details: for Ki: CDK7 (20 nM enz.) (KI, μM), 20 nM enzyme; for kinact: read-out: CDK7 (20 nM enz.) (kinact, s^−1), 20 nM enzyme
[2] = test system: RNA Polymerase II Serine 5 phosphorylation in A549 cells overexpressing CDK7-mutant (C312S); experiment: Imaging-based cellular RNA PolII Ser5 phosphorylation assay in A549 cells overexpressing CDK7-mutant (C312S); assay type: cell-based, human; details: RNA PolII Ser5 phosphorylation, averaged over all measurements; for IC50: Homo sapiens, A549, A549 cells overexpressing CDK7-mutant (C312S), read-out: CDK7_A549 mutant hCDK7(pIC50) (converted)
Outline: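 Readout was automated imaging of anti-phospho-Ser5 Rpb1 CTD immunofluorescence, with IC50 fitted to % control versus concentration. Cells were A549 stably overexpressing non-covalently targetable CDK7 C312S alongside wild-type, exposed to compound 3 h at 37 °C. DMSO and 10 μM reference compound served as controls.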

[3] = test system: RNA Polymerase II Serine 5 phosphorylation (Rpb1 CTD, downstream substrate of CDK7) in A549 cells; experiment: Imaging-based cellular RNA PolII Ser5 phosphorylation assay in A549 cells; assay type: cell-based, human; details: wild-type CDK7, RNA PolII Ser5 phosphorylation, averaged over all measurements; for IC50: Homo sapiens, A549, A549 cells, read-out: CDK7_A549 Wild-type CDK7 (pIC50) (converted)
Outline: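 IC50 derived by fitting % control (DMSO high, 10 μM reference low) against concentration, with Hill slope. Readout: high-content imaging of phospho-Ser5 Rpb1 CTD antibody staining in fixed, permeabilized A549 cells exposed to compound 3 h after 20 h culture in 1% FBS DMEM.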

[4] = read-out: CDK7 (20 nM enz.) (kinact/KI, M^−1*s^−1), 20 nM enzyme

Chain of CDK7/cyclinH/MAT1 trimeric complex (P50613 whole entry): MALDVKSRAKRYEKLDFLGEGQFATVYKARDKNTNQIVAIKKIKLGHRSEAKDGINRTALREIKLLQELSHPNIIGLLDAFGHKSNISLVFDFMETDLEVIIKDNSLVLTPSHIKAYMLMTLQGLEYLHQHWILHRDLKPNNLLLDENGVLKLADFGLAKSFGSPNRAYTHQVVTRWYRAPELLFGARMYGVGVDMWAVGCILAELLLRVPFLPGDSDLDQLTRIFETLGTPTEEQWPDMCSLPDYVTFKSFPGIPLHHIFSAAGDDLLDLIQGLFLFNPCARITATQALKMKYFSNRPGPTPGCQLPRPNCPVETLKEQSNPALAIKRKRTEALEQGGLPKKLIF
Chain of CDK7/cyclinH/MAT1 trimeric complex (P51946 whole entry partner): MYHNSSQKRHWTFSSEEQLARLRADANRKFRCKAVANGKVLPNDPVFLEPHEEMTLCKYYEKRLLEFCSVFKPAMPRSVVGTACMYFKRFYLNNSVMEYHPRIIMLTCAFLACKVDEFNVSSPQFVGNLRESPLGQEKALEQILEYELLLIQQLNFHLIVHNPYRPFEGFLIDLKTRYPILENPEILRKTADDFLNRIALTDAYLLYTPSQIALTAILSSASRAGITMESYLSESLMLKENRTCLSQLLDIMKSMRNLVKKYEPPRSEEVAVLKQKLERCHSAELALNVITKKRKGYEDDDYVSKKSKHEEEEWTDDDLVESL
Chain of CDK7/cyclinH/MAT1 trimeric complex (P51948 whole entry partner): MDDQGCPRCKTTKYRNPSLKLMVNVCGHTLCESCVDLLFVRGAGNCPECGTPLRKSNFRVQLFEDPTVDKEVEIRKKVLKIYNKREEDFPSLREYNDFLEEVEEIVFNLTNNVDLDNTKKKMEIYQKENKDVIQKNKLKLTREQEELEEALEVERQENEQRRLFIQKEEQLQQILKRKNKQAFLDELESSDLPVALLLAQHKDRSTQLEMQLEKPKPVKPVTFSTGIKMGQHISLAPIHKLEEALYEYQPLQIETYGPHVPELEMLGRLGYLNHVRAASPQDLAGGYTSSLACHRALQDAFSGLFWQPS

| SMILES | Ki [1] [µM] | kinact [1] [s⁻¹] | kinact/KI [1, 4] [M⁻¹ s⁻¹] | IC50 [2] [nM] | IC50 [3] [nM] | CDK7 (kinact/KI, M^−1*s^−1) ([1]; potency of irreversible covalent inhibitors, 1 mM ATP, room temperature, averaged values over all measurements) [M⁻¹ s⁻¹] | CDK7_A549 mutant hCDK7(pIC50) ([2]; A549 cells overexpressing CDK7-mutant (C312S)) | CDK7_A549 Wild-type CDK7 (pIC50) ([3]; A549 cells) | kinact/KI ([1]; read-out: CDK7 (20 nM enz.) (kobs/[I], M^−1*s^−1), 20 nM enzyme) [M⁻¹ s⁻¹] |
| --- | --- | --- | --- | --- | --- | --- | --- | --- | --- |
| C=CC(=O)N1CC(N2CCC(c3cc4c(cc3CO)OCc3c(N5CCOCC5)ccnc3N4)CC2)C1 [Compound 139] | 0.515 | 6.73e-05 | 131 | > 10000 | 661 | – | – | – | – |
| C=CC(=O)N1CC(N2CC[C@@H](c3cc(C)c4c(c3)Nc3nccc(C5CCOCC5)c3CO4)N(C)CC2)C1 (single isomer, unassigned) [Compound 256] | 0.0827 | 6.71e-05 | 811 | 8320 | 53.7 | – | – | – | – |
| C=CC(=O)N1CC(N2CCC(c3ccc4c(c3)Nc3nccc(N5CCS(=O)(=O)CC5)c3CO4)CC2)C1 [compound 14] | 0.13 | 7.07e-05 | 545 | – | – | 710 | <5 | 6.4 | – |
| C=CC(=O)N1CC[C@H](N2CC(c3cc4c(c(C#N)n3)O[C@@H](C)c3c(N5CCOCC5)ccnc3N4)C2)C1 (single isomer, unassigned) [Compound 508] | – | – | 6.21 | > 10000 | 2880 | – | – | – | – |
| C=CC(=O)N1CC[C@@H](N2CC(c3cc(C)c4c(c3)Nc3nccc(C5CCOCC5)c3CO4)C2)[C@H](F)C1 (racemic) [Compound 206] | 0.0443 | 4.45e-05 | 1000 | > 10000 | 93.3 | – | – | – | – |
| CC#CC(=O)N1CCC(N2CCC(c3cc4c(c(C)n3)O[C@H](C)c3c(N5CCOCC5)ccnc3N4)CC2)CC1 (single isomer, unassigned) [Compound 416] | – | – | – | 1860 | < 9.77 | – | – | – | 1750 |
| CC#CC(=O)N1CCC(N2CC[C@@H](c3cc4c(c(C)n3)OCc3c(N5CCOCC5)ccnc3N4)C2)CC1 (single isomer, unassigned) [Compound 433] | 0.185 | 1.89e-05 | 102 | 5370 | 170 | – | – | – | – |
| C=CC(=O)N1CCN(C2CCN(c3cc4c(c(C)n3)OCc3c(N5CCOCC5)ccnc3N4)CC2)CC1 [Compound 391] | 0.0205 | 2.25e-05 | 1100 | > 10000 | ~61.7 | – | – | – | – |
| C=CC(=O)N1CC[C@@H](N2CC(c3cc(C)c4c(c3)Nc3nccc(N5CCOCC5)c3CO4)C2)[C@H](F)C1 (mixture of isomers) [Compound 207] | 0.0443 | 3.83e-05 | 865 | > 10000 | 83.2 | – | – | – | – |
| C=CC(=O)N1CC[C@H](N2CC(c3cc4c(c(C)n3)O[C@H](C)c3c(N5CCOCC5)ccnc3N4)C2)C1 (single isomer, unassigned) [Compound 455] | – | – | 179 | > 10000 | 91.2 | – | – | – | – |
| C=CC(=O)N1CC(N2CC[C@@H](c3ccc4c(c3)Nc3nccc(N5CCOCC5)c3CO4)[C@H](O)C2)C1 (racemic) [Compound 216] | 0.472 | 6.66e-05 | 141 | > 10000 | 550 | – | – | – | – |
| C=CC(=O)N1CC(N2CCC(c3ccc4c(c3)Nc3nccc(C5CCOCC5)c3[C@H](C)O4)CC2)C1 (single isomer, unassigned) [Compound 98] | 0.39 | 5.61e-05 | 144 | > 10000 | 1260 | – | – | – | – |
| C=CC(=O)N1CC(N2CCC(c3ccc4c(c3)Nc3nccc(N5CCOC6(CC6)C5)c3CO4)CC2)C1 [Compound 77] | 0.0571 | 5.75e-05 | 1010 | > 10000 | 182 | – | – | – | – |
| CC#CC(=O)N1CC(N2CC[C@@H](c3cc4c(c(C)n3)O[C@H](C)c3c(N5CCOCC5)ccnc3N4)N(C)CC2)C1 (single isomer, unassigned) [Compound 527] | 1.81 | 1.58e-05 | 8.74 | > 10000 | 9770 | – | – | – | – |
| C=CC(=O)N1CC[C@H](N2CC(c3cc(C)c4c(c3)Nc3nccc(-c5cnn(C)c5)c3CO4)C2)C1 (single isomer, unassigned) [Compound 361] | 0.0291 | 5.06e-05 | 1740 | ~10000 | 60.3 | – | – | – | – |
| C=CC(=O)N1CC(N2CCC(c3cc4c(cn3)OCc3c(N5CCOCC5)ccnc3N4)CC2)C1 [Compound 137] | 0.0382 | 6.41e-05 | 1680 | > 10000 | 126 | – | – | – | – |
